For data set [1], the system named is Rattus norvegicus. The experiment in a line: Antipsychotic activity in Wistar rat assessed as effect on locomotor activity at 5 mg/kg, ip measured after 10 mins by open field test. Format: functional, organism-based.
The subject of data set [2] is Rattus norvegicus. The data set can be described thus: Antipsychotic activity in Wistar rat assessed as effect on pre-pulse inhibition of acoustic startle response at 5 mg/kg, ip measured after 10 mins by pre-pulse inhibition test. In kind it is functional, organism-based.
Data set [3] deals with Rattus norvegicus. The data set can be described thus: Antialzheimer activity against scopolamine-induced cognitive impairment in Wistar rat assessed as decrease in latency to reach platform at 5 mg/kg, ip measured upto 4 days by morris water maze test. As to conditions: time <= 4.0 day. Format: functional, organism-based.
The target in data set [4] is T1, Glutamate NMDA receptor; GRIN1/GRIN2B (Homo sapiens, UniProt Q05586+Q13224). The data set can be described thus: Inhibition of recombinant wild type human GluN1/GluN2B receptor expressed in HEK293 cells assessed as reduction in glutamate induced current at -40 mV holding potential by electrophysiology assay. In kind it is cell-based.
A further data set concerns the target Cholinesterase (Homo sapiens, UniProt P06276). The experiment in a line: Inhibition of human BChE by spectrophotometric Ellman's method. Background: DTNB colorimetry detects thiols as they appear.
The test system of data set [5] is Rattus norvegicus. The data set can be described thus: Antialzheimer activity against scopolamine-induced cognitive impairment in Wistar rat assessed as increase in number of platform crossing at 5 mg/kg, ip measured upto 4 days by morris water maze test. Format: functional, organism-based. As to conditions: time <= 4.0 day.
The target of another data set is Acetylcholinesterase (Homo sapiens, UniProt P22303). The experiment in a line: Inhibition of human AChE by spectrophotometric Ellman's method.
Data set [6] concerns Rattus norvegicus. The experiment in a line: Antialzheimer activity against scopolamine-induced cognitive impairment in Wistar rat assessed as decrease in mean distance from platform at 5 mg/kg, ip measured upto 4 days by morris water maze test (reference value: 51.7 +/-1.5 cm). Format: functional. As to conditions: time <= 4 day.
Data set [7] in a line: in vitro. As to conditions: human, liver microsomes.
Description: Metabolic stability in human liver microsomes assessed as intrinsic clearance at 3 uM measured upto 45 min in presence of NADPH regenerating system by LC-MS analysis
A short description of data set [8]: Toxicity in Wistar rat assessed as no observed adverse effect level (NOAEL) at 5 mg/kg, ip. In kind it is organism-based. Particulars: in vivo.
Data set [9] can be described thus: Inhibition of recombinant human GluN1 deltaATD/GluN2B receptor expressed in HEK293 cells assessed as reduction in glutamate induced current at -40 mV holding potential by electrophysiology assay. In kind it is cell-based.
A short description of data set [10]: Inhibition of recombinant human GluN1 F113A /GluN2B receptor expressed in HEK293 cells assessed as reduction in glutamate induced current at -40 mV holding potential by electrophysiology assay. Format: cell-based.
A short description of data set [11]: in vitro. As to conditions: human, liver microsomes. The source holds these as a separate data set.
Description: Metabolic stability in human liver microsomes assessed as half life at 3 uM measured upto 45 min in presence of NADPH regenerating system by LC-MS analysis
A short description of data set [12]: Inhibition of recombinant human GluN1 F113A /GluN2B receptor expressed in HEK293 cells assessed as reduction in glutamate induced current at -60 mV holding potential by electrophysiology assay. Format: cell-based.
The nature of data set [13]: Inhibition of recombinant human GluN1/GluN2B Q110F mutant receptor expressed in HEK293 cells assessed as reduction in glutamate induced current at -40 mV holding potential by electrophysiology assay. In kind it is cell-based.
The target in data set [14] is T2, Glutamate NMDA receptor; GRIN1/GRIN2A (Homo sapiens, UniProt Q05586+Q12879). The experiment in a line: Inhibition of recombinant wild type human GluN1/GluN2A receptor expressed in HEK293 cells assessed as reduction in glutamate induced current at -40 mV holding potential by electrophysiology assay. Format: cell-based.
Data set [15] is described as follows: Inhibition of recombinant human GluN1 Y109C /GluN2B receptor expressed in HEK293 cells assessed as reduction in glutamate induced current at -60 mV holding potential by electrophysiology assay. Format: cell-based.
Data set [16] addresses T2, Glutamate NMDA receptor; GRIN1/GRIN2A. The data set can be described thus: Inhibition of recombinant wild type human GluN1/GluN2A receptor expressed in HEK293 cells assessed as reduction in glutamate induced current at -60 mV holding potential by electrophysiology assay. Format: cell-based.
Data set [17] in a line: Inhibition of recombinant human GluN1/GluN2B Q110F mutant receptor expressed in HEK293 cells assessed as reduction in glutamate induced current at -60 mV holding potential by electrophysiology assay. Format: cell-based.
A short description of data set [18]: Inhibition of recombinant human GluN1 deltaATD/GluN2B receptor expressed in HEK293 cells assessed as reduction in glutamate induced current at -60 mV holding potential by electrophysiology assay. In kind it is cell-based.
Data set [19] has as its target T1, Glutamate NMDA receptor; GRIN1/GRIN2B. The experiment in a line: Inhibition of recombinant wild type human GluN1/GluN2B receptor expressed in HEK293 cells assessed as reduction in glutamate induced current at -60 mV holding potential by electrophysiology assay. In kind it is cell-based.
A short description of data set [20]: Cytotoxicity against CHO-K1 cells incubated for 24 hrs by MTT assay. Format: toxicity, cell-based, Cricetulus griseus. As to conditions: Chinese hamster. (In general: Formazan colour is commonly taken as a measure of viable cells.)
A short description of data set [21]: Inhibition of recombinant human GluN1/GluN2B F114A mutant receptor expressed in HEK293 cells assessed as reduction in glutamate induced current at -60 mV holding potential by electrophysiology assay. Format: cell-based.
A short description of data set [22]: Toxicity in Wistar rat assessed as loss of activity at 10 mg/kg, ip. As to conditions: in vivo. In kind it is organism-based.
Data set [23] is described as follows: Inhibition of recombinant human GluN1/GluN2B F114A mutant receptor expressed in HEK293 cells assessed as reduction in glutamate induced current at -40 mV holding potential by electrophysiology assay. Format: cell-based.
Data set [24] can be described thus: Toxicity in Wistar rat assessed as reduction in breathing at 10 mg/kg, ip. Format: organism-based. As to conditions: in vivo.
The target in data set [25] is T1, Glutamate NMDA receptor; GRIN1/GRIN2B. The experiment in a line: Inhibition of recombinant human GluN1/GluN2B receptor expressed in HEK293 cells assessed as reduction in glutamate induced current at 1 uM at -60 mV holding potential by electrophysiology assay relative to control. In kind it is cell-based.
Data set [26] is described as follows: Inhibition of recombinant human GluN1 Y109C /GluN2B receptor expressed in HEK293 cells assessed as reduction in glutamate induced current at -40 mV holding potential by electrophysiology assay. In kind it is cell-based.
The target of data set [27] is T1, Glutamate NMDA receptor; GRIN1/GRIN2B. The data set can be described thus: Inhibition of recombinant human GluN1/GluN2B receptor expressed in HEK293 cells assessed as reduction in glutamate induced current at -20 mV holding potential by electrophysiology assay. Format: cell-based.

Activity calls are given as the source filed them. The rule behind the calls is not given here.

T2 sequence (Q12879 whole entry, other chains not shown): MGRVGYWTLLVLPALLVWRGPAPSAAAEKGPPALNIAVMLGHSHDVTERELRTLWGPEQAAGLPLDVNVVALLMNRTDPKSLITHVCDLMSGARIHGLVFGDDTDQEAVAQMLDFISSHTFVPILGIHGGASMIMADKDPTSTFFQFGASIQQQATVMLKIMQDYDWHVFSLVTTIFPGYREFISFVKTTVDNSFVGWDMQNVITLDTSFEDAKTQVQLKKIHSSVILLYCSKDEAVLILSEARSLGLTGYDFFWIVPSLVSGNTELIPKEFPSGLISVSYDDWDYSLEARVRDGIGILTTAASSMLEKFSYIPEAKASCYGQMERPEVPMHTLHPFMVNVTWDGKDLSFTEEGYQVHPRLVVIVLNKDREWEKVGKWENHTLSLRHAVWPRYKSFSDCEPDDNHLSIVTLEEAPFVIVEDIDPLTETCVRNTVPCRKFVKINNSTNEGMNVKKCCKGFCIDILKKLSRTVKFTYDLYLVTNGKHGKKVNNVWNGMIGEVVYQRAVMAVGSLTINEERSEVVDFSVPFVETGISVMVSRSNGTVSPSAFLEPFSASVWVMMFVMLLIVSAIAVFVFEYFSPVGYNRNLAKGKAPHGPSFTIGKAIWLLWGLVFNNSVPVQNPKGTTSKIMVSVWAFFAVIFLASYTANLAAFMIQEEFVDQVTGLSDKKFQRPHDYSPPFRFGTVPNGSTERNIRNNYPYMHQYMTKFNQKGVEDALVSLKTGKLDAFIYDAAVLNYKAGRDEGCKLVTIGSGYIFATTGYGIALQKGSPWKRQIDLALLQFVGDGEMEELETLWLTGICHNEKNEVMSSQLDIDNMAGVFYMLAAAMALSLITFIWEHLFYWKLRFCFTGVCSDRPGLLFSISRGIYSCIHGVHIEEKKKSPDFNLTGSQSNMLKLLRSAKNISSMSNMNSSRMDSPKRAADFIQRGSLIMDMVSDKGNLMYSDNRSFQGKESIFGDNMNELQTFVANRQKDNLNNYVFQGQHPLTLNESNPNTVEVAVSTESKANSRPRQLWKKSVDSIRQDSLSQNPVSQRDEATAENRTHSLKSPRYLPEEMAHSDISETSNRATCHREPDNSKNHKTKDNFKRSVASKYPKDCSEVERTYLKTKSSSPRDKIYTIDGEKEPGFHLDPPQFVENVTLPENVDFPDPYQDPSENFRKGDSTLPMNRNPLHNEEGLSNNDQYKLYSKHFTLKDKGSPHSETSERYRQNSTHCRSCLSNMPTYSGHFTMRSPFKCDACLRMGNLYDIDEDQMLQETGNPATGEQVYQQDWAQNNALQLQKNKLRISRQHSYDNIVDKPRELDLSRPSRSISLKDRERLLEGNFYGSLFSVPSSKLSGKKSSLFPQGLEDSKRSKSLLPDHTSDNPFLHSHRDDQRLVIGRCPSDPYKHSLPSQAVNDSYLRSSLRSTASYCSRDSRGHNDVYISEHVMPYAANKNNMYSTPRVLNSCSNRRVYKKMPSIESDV
Sequence of Acetylcholinesterase (P22303 whole entry): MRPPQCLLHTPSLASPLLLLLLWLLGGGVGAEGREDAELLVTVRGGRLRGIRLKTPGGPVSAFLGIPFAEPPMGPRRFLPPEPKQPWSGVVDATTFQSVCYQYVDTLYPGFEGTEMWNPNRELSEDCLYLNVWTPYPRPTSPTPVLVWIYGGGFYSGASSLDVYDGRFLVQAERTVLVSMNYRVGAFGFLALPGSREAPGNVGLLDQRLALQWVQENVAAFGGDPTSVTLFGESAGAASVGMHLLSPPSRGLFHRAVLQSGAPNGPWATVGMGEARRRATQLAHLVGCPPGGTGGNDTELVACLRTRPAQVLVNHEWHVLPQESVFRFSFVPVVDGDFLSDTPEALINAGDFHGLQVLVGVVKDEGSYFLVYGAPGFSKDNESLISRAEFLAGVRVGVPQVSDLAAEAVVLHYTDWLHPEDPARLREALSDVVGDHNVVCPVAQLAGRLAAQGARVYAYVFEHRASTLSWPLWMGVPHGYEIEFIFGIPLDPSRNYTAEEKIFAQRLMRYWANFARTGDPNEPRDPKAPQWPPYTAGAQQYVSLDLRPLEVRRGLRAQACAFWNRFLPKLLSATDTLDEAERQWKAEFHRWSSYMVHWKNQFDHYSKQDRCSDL
Sequence of Cholinesterase (P06276 whole entry): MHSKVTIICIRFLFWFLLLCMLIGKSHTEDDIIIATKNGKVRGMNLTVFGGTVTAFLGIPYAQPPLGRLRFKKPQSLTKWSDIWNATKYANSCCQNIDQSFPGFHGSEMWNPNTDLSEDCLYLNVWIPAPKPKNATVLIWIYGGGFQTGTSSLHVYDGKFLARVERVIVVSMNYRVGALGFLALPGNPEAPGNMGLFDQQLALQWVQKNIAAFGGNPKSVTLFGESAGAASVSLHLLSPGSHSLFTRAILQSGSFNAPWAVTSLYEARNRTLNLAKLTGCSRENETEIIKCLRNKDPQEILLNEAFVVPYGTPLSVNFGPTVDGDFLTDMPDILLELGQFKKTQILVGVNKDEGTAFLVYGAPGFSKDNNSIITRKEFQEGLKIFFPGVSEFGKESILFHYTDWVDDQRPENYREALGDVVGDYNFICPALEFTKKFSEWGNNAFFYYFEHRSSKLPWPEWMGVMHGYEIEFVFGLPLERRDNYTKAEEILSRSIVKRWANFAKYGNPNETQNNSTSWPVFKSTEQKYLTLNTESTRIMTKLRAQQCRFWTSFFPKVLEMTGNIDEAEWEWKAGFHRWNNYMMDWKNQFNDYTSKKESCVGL

On to `COc1ccccc1Oc1ccc2nc3c(c(N)c2c1)CCCC3.Cl`, for which the outcome with Rattus norvegicus [1], with Rattus norvegicus [2], with Rattus norvegicus [3] and in the data set on Rattus norvegicus [5] was inactive. Also, the IC50 (as a rule, the concentration that inhibits the measured activity by half) in data set [4] is 6.8 µM; on Cholinesterase it was 0.44 µM; at Acetylcholinesterase, 0.84 µM; in [9], 47.2 µM; in [10], 2.1 µM; in data set [12], 1.7 µM. In addition, the IC50 in [13] came out at 10.3 µM; in [14], 43.8 µM; in data set [15], 9.5 µM; in [16], 10.1 µM; in data set [17], 9.5 µM; in [18] it was 11.1 µM. Besides, the IC50 in data set [19] came out at 3.6 µM; in data set [21], 9.4 µM; in [23], 31.9 µM; in data set [26] it was 8.4 µM. Besides, the Activity in the data set on Rattus norvegicus [6] is 78.7 cm; in data set [8], “Non-Toxic”; in data set [22], “Toxic”; in data set [24], “Toxic”. The microsomal CLint (as a rule, a measure of how fast metabolising enzymes remove a compound, apart from limits set by blood flow) at 0.75 h, 3 µM in “in vitro [7]” was determined as 8.61 µL/min/mg. Moreover, the half-life (as a rule, how long it takes for the measured level to halve) at 0.75 h, 3 µM in “in vitro [11]” is 2.69 h. Besides, it took 43 µM to reach half-maximal inhibition in data set [20] (IC50 at 24 h). Further, the inhibition (commonly the change of the read-out against control, counted positive when it falls) in data set [25] turned out to be 25.7%.
As to `Nc1c2c(nc3ccc(Oc4ccccc4)cc13)CCCC2`, the IC50 in data set [27] was around 2 µM. Moreover, the IC50 at 24 h in data set [20] was found to be 31 µM. Besides, the inhibition in data set [25] was found to be 33.1%.
